{"source": "ChEMBL document CHEMBL5252595", "about": "“A Quarter Century of Marine Biodiscovery in Algoa Bay, South Africa” (J Nat Prod, 2023)", "key": {"[1]": {"assay": "Anticancer activity against human WHCO1 cells assessed as cell growth incubated for 24 hrs by MTT assay", "format": "functional, cell-based", "settings": "WHCO1, 24 h"}, "SNB-19": {"tested_on": "SNB-19", "assay": "Anticancer activity against human SNB-19 cells assessed as cell growth inhibition", "format": "functional, cell-based"}, "A549": {"tested_on": "A549", "assay": "Anticancer activity against human A549 cells assessed as cell growth inhibition", "format": "functional, cell-based"}, "LOX IMVI": {"tested_on": "LOX IMVI", "assay": "Anticancer activity against human LOX IMVI cells assessed as cell growth inhibition", "format": "functional, cell-based"}, "OVCAR-3": {"tested_on": "OVCAR-3", "assay": "Anticancer activity against human OVCAR-3 cells assessed as cell growth inhibition", "format": "functional, cell-based"}, "NCI-H460": {"tested_on": "NCI-H460", "assay": "Anticancer activity against human NCI-H460 cells assessed as cell growth incubated for 48 hrs by MTT assay", "format": "functional, cell-based", "settings": "NCI-H460, 48 h"}, "[2]": {"assay": "Anticancer activity against human U-87 MG cells assessed as cell growth inhibition", "format": "functional, U-87MG ATCC", "settings": "read-out: LC50 (the source's name)"}, "MDA-MB-231": {"tested_on": "MDA-MB-231", "assay": "Anticancer activity against human MDA-MB-231 cells assessed as cell growth incubated for 24 hrs by MTT assay", "format": "functional, cell-based", "settings": "MDA-MB-231, 24 h"}, "HCT-116": {"tested_on": "HCT-116", "assay": "Anticancer activity against human HCT-116 cells assessed as cell growth inhibition", "format": "functional", "settings": "read-out: LC50 (the source's name)"}}}
{"smiles": "C/C(=C\\Cc1cc(O)c(C)cc1O)CC/C=C(\\C)CC(=O)CC(C)C", "values": [{"measurement": "IC50", "setting": "[1]", "value": 9.5, "unit": "µM"}]}
{"smiles": "CCCCCCCC/C=C/C=C/[C@@H](C)N", "values": [{"measurement": "IC50", "setting": "SNB-19", "value": 30, "unit": "µM"}, {"measurement": "IC50", "setting": "A549", "value": 30, "unit": "µM"}, {"measurement": "IC50", "setting": "LOX IMVI", "value": 30, "unit": "µM"}, {"measurement": "IC50", "setting": "OVCAR-3", "value": 30, "unit": "µM"}]}
{"smiles": "CCCC(=O)O[C@@H]1C[C@H]2C[C@@H](O[C@@H]3O[C@@H](C)[C@@H](O)[C@@H](O)[C@H]3OC)C[C@@H](C[C@@H](C)/C=C/C=C\\C[C@@H]3O[C@@H](C[C@@H]3C)[C@@H](O)C[C@H]3C[C@@]1(O)C(=O)O3)O2", "values": [{"measurement": "IC50", "setting": "NCI-H460", "value": 0.044, "unit": "µM"}]}
{"smiles": "CO[C@H]1[C@H](O[C@@H]2C[C@@H]3C/C=C/C(=O)O[C@H](CO)C[C@H](O)[C@@H]4C[C@H](C)[C@H](C/C=C\\C=C\\[C@H](C)C[C@H](C2)O3)O4)O[C@@H](C)[C@H](O)[C@H]1O", "values": [{"measurement": "CC50", "setting": "[2]", "value": 0.00038, "unit": "µM"}, {"measurement": "IC50", "setting": "NCI-H460", "value": 0.012, "unit": "µM"}]}
{"smiles": "O=C1Cc2ccc(Br)cc2N1", "values": [{"measurement": "IC50", "setting": "MDA-MB-231", "value": 74, "unit": "µM"}]}
{"smiles": "Brc1ccc2c(Br)c[nH]c2c1", "values": [{"measurement": "IC50", "setting": "MDA-MB-231", "value": 118, "unit": "µM"}]}
{"smiles": "CC.CCCCCCCC(=O)OC[C@@H]1C[C@H](O)[C@@H]2C[C@H](C)[C@H](C/C=C\\C=C\\[C@H](C)C[C@@H]3C[C@H](O[C@@H]4O[C@@H](C)[C@H](O)[C@@H](O)[C@H]4OC)C[C@H](C/C=C/C(=O)O1)O3)O2", "values": [{"measurement": "CC50", "setting": "[2]", "value": 0.061, "unit": "µM"}, {"measurement": "CC50", "setting": "HCT-116", "value": 0.054, "unit": "µM"}]}
{"smiles": "O=C1C[C@H]2S[C@H]3C[C@]2(C=C1Br)C1=C(N3)C(=O)c2[nH]cc3c2C1=NCC3", "note": "[DISCORHABDINE A]", "values": [{"measurement": "IC50", "setting": "[1]", "value": 0.017, "unit": "µM"}]}
{"smiles": "Clc1c[nH]c2cc(Br)ccc12", "values": [{"measurement": "IC50", "setting": "MDA-MB-231", "value": 73, "unit": "µM"}]}
